In patent US20230002352A1, “SULFONAMIDE DERIVATIVES AS CTPS1 INHIBITORS” (Step Pharma S.A.S., priority 2019, published 2023) one finds IC50 data, which are given here for 43 molecules.

In this experiment the target is T1, human CTPS1 (Homo sapiens, UniProt P17812).
T1 construct: purchased Proteros biostructures GmbH
T1 sequence (P17812 1-591): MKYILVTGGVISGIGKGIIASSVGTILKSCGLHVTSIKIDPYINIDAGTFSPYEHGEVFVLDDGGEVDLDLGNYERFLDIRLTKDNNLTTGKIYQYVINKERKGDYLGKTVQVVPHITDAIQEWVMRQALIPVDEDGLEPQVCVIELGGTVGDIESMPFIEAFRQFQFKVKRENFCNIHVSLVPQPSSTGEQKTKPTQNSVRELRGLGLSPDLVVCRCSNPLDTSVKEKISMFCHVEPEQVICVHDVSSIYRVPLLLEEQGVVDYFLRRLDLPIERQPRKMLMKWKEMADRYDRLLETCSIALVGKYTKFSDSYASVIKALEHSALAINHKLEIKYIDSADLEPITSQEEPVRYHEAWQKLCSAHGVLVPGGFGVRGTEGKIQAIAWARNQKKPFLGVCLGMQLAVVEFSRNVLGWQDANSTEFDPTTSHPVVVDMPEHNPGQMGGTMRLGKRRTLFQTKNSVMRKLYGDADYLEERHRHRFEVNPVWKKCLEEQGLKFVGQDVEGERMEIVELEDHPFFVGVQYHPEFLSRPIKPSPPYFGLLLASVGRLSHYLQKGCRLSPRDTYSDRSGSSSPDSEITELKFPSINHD
As to the kind of experiment: Human CTPS1 enzyme inhibition (ADP-Glo Max assay). In kind it is biochemical. Particulars: Table 23; ADP-Glo Max assay; read-out: CTPS1 (Human CTPS1 Enzyme Inhibition data grouped by potency range, IC50). The procedure: Biological Example 1—Human CTPS1 Enzyme Inhibition
The enzyme inhibitory activities of compounds invented against the target of interest were determined using the ADP-Glo™ Max assay (Promega, UK). Assays for human CTPS1 were performed in 1× assay buffer containing 50 mM Tris, 10 mM MgCl2, 0.01% Tween-20, pH to 8.0 accordingly. Finally, immediately before use, L-cysteine was added to the 1× assay buffer to a final concentration of 2 mM. All reagents are from Sigma-Aldrich unless specified otherwise. Human full length active C-terminal FLAG-Hiss-tag CTPS1 (UniProtKB-P17812, CTPS[1-591]-[…]) was obtained from Proteros biostructures GmbH.
3× human CTPS1 protein was prepared in 1× assay buffer to the final working protein concentration required for the reaction. A 2 uL volume per well of 3× human CTPS1 protein was mixed with 2 uL per well of 3× test compound (compound prepared in 1× assay buffer to an appropriate final 3× compound concentration respective to the concentration response curve designed for the compounds under test) for 10 minutes at 25° C. The enzymatic reaction was then initiated by addition of a 2 uL per well volume of a pre-mixed substrate mix (UltraPure ATP from ADP-Glo™ Max kit (0.31 mM), GTP (0.034 mM), UTP (0.48 mM) and L-glutamine (0.186 mM)) and the mixture was incubated for an appropriate amount of time within the determined linear phase of the reaction at 25° C. under sealed plate conditions with constant agitation at 500 revolutions per minute (rpm). ADP-Glo™ Max reagent was added for 60 minutes (6 μL per well) and subsequently ADP-Glo™ Max development reagent was added for 60 minutes (12 uL per well) prior to signal detection in a microplate reader (EnVision® Multilabel Reader, Perkin Elmer). Following each reagent addition over the course of the assay, assay plates were pulse centrifuged for 30 seconds at 500 rpm.
In all cases, the enzyme converts ATP to ADP and the ADP-Glo™ Max reagent subsequently depletes any remaining endogenous ATP in the reaction system. The ADP-Glo™ Max detection reagent converts the ADP that has been enzymatically produced back into ATP and using ATP as a substrate together with luciferin for the enzyme luciferase, light is generated which produces a detectable luminescence. […] The percentage inhibition produced by each concentration of compound was calculated using the equation shown below: […]
Percentage inhibition was then plotted against compound concentration, and the 50% inhibitory concentration (IC50) was determined from the resultant concentration-response curve.
(In general: ADP-Glo first removes unused ATP, then detects ADP through luciferase.)

Each structure is given as a SMILES string.

Turning to `CCOc1cncc(-c2ccc(NC(=O)C(F)(CC)c3ccnc(NS(C)(=O)=O)n3)nc2)n1` (single isomer, unassigned) [Example P165], the IC50 (as a rule, the concentration needed to halve the response being measured) was no more than 100 nM.

For the molecule `CCOc1cncc(-c2ccc(C(=O)NC(CC)c3cncc(NS(=O)(=O)C4CC4)n3)c(F)c2)n1` (single isomer, unassigned) [Example P225], the IC50 was no more than 100 nM.

Consider `COc1cncc(-c2ccc(NC(=O)C(C)(C)c3ccnc(NS(=O)(=O)C4CC4)n3)cc2)n1` [Example P3, 2-(2-(cyclopropanesulfonamido)pyrimidin-4-yl)-N-(4-(6-methoxypyrazin-2-yl)phenyl)-2-methylpropanamide], for which the IC50 was no more than 100 nM.

For the molecule `CC(C)(C(=O)Nc1ccc(-c2cncc(C(F)(F)F)c2)cc1)c1ccnc(NS(=O)(=O)C2CC2)n1` [Example P4, 2-(2-(Cyclopropanesulfonamido)pyrimidin-4-yl)-2-methyl-N-(4-(5-(trifluoromethyl)pyridin-3-yl)phenyl)propanamide], the IC50 was 100 to 1000 nM.

`Cc1cncc(-c2ccc(NC(=O)C(C)(C)c3ccnc(NS(C)(=O)=O)n3)c(C)c2)n1` [Example P5, 2-Methyl-N-(2-methyl-4-(6-methylpyrazin-2-yl)phenyl)-2-(2-(methylsulfonamido)pyrimidin-4-yl)propanamide]: the IC50 lay within 1000 to 10000 nM.

Consider `O=C(Cc1ccnc(NS(=O)(=O)C2CC2)n1)Nc1ccc(-c2cncc(C(F)(F)F)n2)cc1` [Example P8, 2-(2-(Cyclopropanesulfonamido)pyrimidin-4-yl)-N-(4-(6-(trifluoromethyl)pyrazin-2-yl)phenyl)acetamide], for which the IC50 was no more than 100 nM.

Turning to `CCOc1cncc(-c2ccc(NC(=O)C(CC)(CC)c3ccnc(NS(=O)(=O)C4CC4)n3)cc2)n1` [Example P10], the IC50 was no more than 100 nM.

With `O=C(Cc1ccnc(NS(=O)(=O)C2CC2)n1)Nc1ccc(-c2cncc(C(F)(F)F)n2)cc1F` [Example P11], the IC50 is no more than 100 nM.

On to `O=C(Cc1ccnc(NS(=O)(=O)C2CC2)n1)Nc1ccc(-c2cncc(C(F)(F)F)c2)cc1` [Example P13], for which the IC50 fell in the range of 100 to 1000 nM.

In the case of `O=C(Cc1ccnc(NS(=O)(=O)C2CC2)n1)Nc1ccc(-c2cncc(OCC(F)(F)F)c2)cc1` [Example P14], the IC50 fell in the range of 100 to 1000 nM.

As to `O=C(Cc1nc(NS(=O)(=O)C2CC2)ncc1F)Nc1ccc(-c2cccnc2)cc1` [Example P15], the IC50 fell in the range of 1000 to 10000 nM.

Regarding `O=C(Cc1ccnc(NS(=O)(=O)C2CC2)n1)Nc1ccc(-c2ccccc2)cc1` [Example P17], the IC50 fell in the range of 1000 to 10000 nM.

As for `COc1cncc(-c2ccc(NC(=O)Cc3ccnc(NS(=O)(=O)C4CC4)n3)cc2)n1` [Example P19], the IC50 is no more than 100 nM.

In the case of `O=C(Cc1ccnc(NS(=O)(=O)C2CC2)n1)Nc1ccc(-c2cncc(OCC(F)(F)F)n2)cc1` [Example P20], the IC50 is no more than 100 nM.

Consider `CCOc1cncc(-c2ccc(NC(=O)C(C)(C)c3ccnc(NS(=O)(=O)C4CCC4)n3)nc2)n1` [Example P22], for which the IC50 is 100 to 1000 nM.

`CC(C)Oc1cncc(-c2ccc(NC(=O)C(C)(C)c3ccnc(NS(=O)(=O)C4CCC4)n3)c(F)c2)n1` [Example P23]: the IC50 fell in the range of 100 to 1000 nM.

On to `CCOc1cncc(-c2ccc(NC(=O)C(C)(C)c3ccnc(NS(=O)(=O)C4CCC4)n3)c(C)c2)n1` [Example P24], for which the half-maximal inhibitory concentration (IC50) fell in the range of 100 to 1000 nM.

Take `COc1cncc(-c2ccc(NC(=O)C(C)(C)c3ccnc(NS(=O)(=O)C4CCC4)n3)cc2)n1` [Example P25]: the IC50 fell in the range of 100 to 1000 nM.

As to `CCOc1cncc(-c2ccc(NC(=O)C(C)(C)c3ccnc(NS(=O)(=O)C4CCC4)n3)cc2)n1` [Example P26], the IC50 was 100 to 1000 nM.

On to `CCOc1cncc(-c2cnc(NC(=O)C(C)(C)c3ccnc(NS(=O)(=O)C4CC4)n3)c(F)c2)n1` [Example P27], for which the IC50 is no more than 100 nM.

In the case of `CCOc1cncc(-c2ccc(NC(=O)C(C)(C)c3ccnc(NS(=O)(=O)C4CC4)n3)nc2)c1` [Example P28], the IC50 fell in the range of 100 to 1000 nM.

`CC(C)(C(=O)Nc1ccc(-c2cccnc2)cn1)c1ccnc(NS(=O)(=O)C2CC2)n1` [Example P29]: the IC50 was 1000 to 10000 nM.

Regarding `CC(C)(C(=O)Nc1ccc(-c2cncc(C(F)(F)F)n2)cn1)c1ccnc(NS(=O)(=O)C2CC2)n1` [Example P30], the IC50 was no more than 100 nM.

On to `CC(C)(C(=O)Nc1ccc(-c2cncc(OC3CC3)n2)cn1)c1ccnc(NS(=O)(=O)C2CC2)n1` [Example P32], for which the IC50 was no more than 100 nM.

As to `CCOc1cncc(-c2ccc(NC(=O)C(C)(C)c3ccnc(NS(=O)(=O)C4CC4)n3)c(Cl)c2)n1` [Example P33], the IC50 is no more than 100 nM.

`CC(C)Oc1cncc(-c2ccc(NC(=O)C(C)(C)c3ccnc(NS(=O)(=O)C4CC4)n3)c(F)c2)c1` [Example P35]: the IC50 fell in the range of 100 to 1000 nM.

Regarding `CC(C)(C(=O)Nc1ccc(-c2cccnc2)cc1F)c1ccnc(NS(=O)(=O)C2CC2)n1` [Example P36], the IC50 was in the range of 1000 to 10000 nM.

As to `CC(C)(C(=O)Nc1ccc(-c2cncc(C(F)(F)F)n2)cc1F)c1ccnc(NS(=O)(=O)C2CC2)n1` [Example P37], the IC50 is no more than 100 nM.

Consider `CCOc1cncc(-c2cc(F)c(NC(=O)C(C)(C)c3ccnc(NS(=O)(=O)C4CC4)n3)cc2C)n1` [Example P40], for which the IC50 lay within 100 to 1000 nM.

Consider `CCOc1cncc(-c2cc(F)c(NC(=O)C(C)(C)c3ccnc(NS(=O)(=O)C4CC4)n3)c(F)c2)n1` [Example P41], for which the IC50 was no more than 100 nM.

`CC(C)(C(=O)Nc1ccc(-c2cnccn2)cc1F)c1ccnc(NS(=O)(=O)C2CC2)n1` [Example P42]: the IC50 was 1000 to 10000 nM.

As to `Cc1cc(-c2cncc(C(F)(F)F)n2)ccc1NC(=O)C(C)(C)c1ccnc(NS(=O)(=O)C2CC2)n1` [Example P43], the half-maximal inhibitory concentration (IC50) was in the range of 100 to 1000 nM.

For `CCOc1cncc(-c2ccc(NC(=O)C(C)(C)c3ccnc(NS(=O)(=O)C4CC4)n3)c(C)c2C)n1` [Example P44], the IC50 lay in the range of 100 to 1000 nM.

For `CCOc1cncc(-c2cc(C)c(NC(=O)C(C)(C)c3ccnc(NS(=O)(=O)C4CC4)n3)cc2F)n1` [Example P45], the IC50 lay within 100 to 1000 nM.

On to `CCOc1cncc(-c2cc(C)c(NC(=O)C(C)(C)c3ccnc(NS(=O)(=O)C4CC4)n3)cc2C)n1` [Example P46], for which the IC50 lay in the range of 100 to 1000 nM.

On to `CCOc1cncc(-c2ccc(NC(=O)C(C)(C)c3ccnc(NS(=O)(=O)C4CC4)n3)c(OC(F)(F)F)c2)n1` [Example P47], for which the IC50 is no more than 100 nM.

As to `CCOc1cncc(-c2cc(OC)c(NC(=O)C(C)(C)c3ccnc(NS(=O)(=O)C4CC4)n3)cc2F)n1` [Example P48], the IC50 was in the range of 100 to 1000 nM.

As for `CCOc1cncc(-c2ccc(NC(=O)C(C)(C)c3ccnc(NS(=O)(=O)C4CC4)n3)c(OC)c2)n1` [Example P49], the IC50 was no more than 100 nM.

Consider `CC(C)(C(=O)Nc1ccc(-c2cncnc2)cc1)c1ccnc(NS(=O)(=O)C2CC2)n1` [Example P50], for which the IC50 lay within 1000 to 10000 nM.

For `CC(C)(C(=O)Nc1ccc(-c2cncc(Cl)c2)cc1)c1ccnc(NS(=O)(=O)C2CC2)n1` [Example P51], the IC50 fell in the range of 100 to 1000 nM.

For the molecule `CC(C)(C(=O)Nc1ccc(-c2cncc(C#N)c2)cc1)c1ccnc(NS(=O)(=O)C2CC2)n1` [Example P52], the IC50 was in the range of 100 to 1000 nM.

In the case of `CC(C)(C(=O)Nc1ccc(-c2cncc(F)c2)cc1)c1ccnc(NS(=O)(=O)C2CC2)n1` [Example P53], the IC50 lay within 100 to 1000 nM.

Consider `Cc1cncc(-c2ccc(NC(=O)C(C)(C)c3ccnc(NS(=O)(=O)C4CC4)n3)cc2)c1` [Example P54], for which the IC50 lay within 100 to 1000 nM.
